“And” between values parts separate entries of the source, which are not always exact repeats. Identical values can stand only once. “Also recorded” adds a separate entry of the source. Like-named read-outs stand apart in the source and are kept apart here.
Legend:
[1] = tested on: Vegetative G. stearothermophilus cells; details: 1.5-hour exposure, 28 bar, 25 °C; cited from earlier work
[2] = tested on: G. stearothermophilus spores; details: cited from earlier work
Lactobacillus plantarum = details: high-pressure CO2 treatment, suspension in distilled water at pH 6.0; cited from earlier work
[3] = tested on: B. pumilus ATCC 27142 spores; test: Log reduction of B. pumilus spores on spore strips treated with high-pressure/supercritical CO2 with or without additives, colony counting; type: cell-based
[4] = tested on: B. anthracis ΔSterne-1 spores
[5] = tested on: B. atrophaeus ATCC 9372 spores
[6] = additive with CO2, conditions of Table 2
[7] = additive with CO2, 40 °C, 276 bar, 4 hr

In the case of `O=C=O` [CO2, carbon dioxide], the “log reduction of vegetative cells” value [1] is given as “more than 6 log”, the spores remained viable [2] is given as 80% and the log reduction (Lactobacillus plantarum) is given as “more than 7 log”. For the same compound, the log reduction [3] was 3.90 log, the “LOG REDUCTION” value ([3]; wetted spore strips with CO2, 4 hr, 103 bar, 60 °C) was 1.91 ± 0.23 log and the “LOG REDUCTION” value ([3]; wetted spore strips with CO2, 4 hr, 276 bar, 50 °C) was 0.58 ± 0.04 log. For the same compound, the “LOG REDUCTION” value ([3]; wetted spore strips with CO2, 4 hr, 276 bar, 60 °C) was 3.06 ± 0.17 log and the “LOG REDUCTION” value ([3]; wetted spore strips with CO2, 4 hr, 276 bar, 80 °C) was 3.02 ± 0.07 log.

In the case of `OO` [30% H2O2, hydrogen peroxide], the Log reduction [4] is reported as 5.74, the Log reduction [5] is reported as 6.25 and the “LOG REDUCTION” value [3] is reported as 4.47 ± 0.64 log and 4.60 ± 0.02 log and 6.28 ± 0.46 log and 4.45 ± 0.31 log. For the same compound, the “deactivation in replicate experiments (in words)” value [3] was “complete deactivation in two of the three replicate experiments” and the “effectiveness of additive in deactivating B. pumilus spores (in words)” value [3] was “highly effective; also recorded: the most effective additive among the additives examined”.

For `O` [BULK WATER, water], the “effectiveness of additive (in words)” value [3] was “neither bulk water, nor ethanol, nor isopropanol were effective additives” and the “effectiveness of additive in deactivating B. pumilus spores (in words)” value [3] was “Neither bulk water, 5 μL of 70% ethanol, nor 5 μL of 70% isopropanol resulted in the required log reduction”.

With `CC(C)O` [70% ISOPROPANOL, isopropanol] the “effectiveness of additive in deactivating B. pumilus spores (in words)” value [3, 6] was “Neither bulk water, 5 μL of 70% ethanol, nor 5 μL of 70% isopropanol resulted in the required log reduction”, the “LOG REDUCTION” value [3, 7] was 0.17 ± 0.06 log and the “effectiveness of additive (in words)” value ([3]; dense-phase CO2, at 40 °C) was “neither bulk water, nor ethanol, nor isopropanol were effective additives”.

With `CCO` [70% ETHANOL, ethanol] the “effectiveness of additive in deactivating B. pumilus spores (in words)” value [3, 6] was “Neither bulk water, 5 μL of 70% ethanol, nor 5 μL of 70% isopropanol resulted in the required log reduction”, the “LOG REDUCTION” value [3, 7] was 0.27 ± 0.16 log and the “effectiveness of additive (in words)” value ([3]; dense-phase CO2, at 40 °C) was “neither bulk water, nor ethanol, nor isopropanol were effective additives”.

Reference: US20100080790A1, “STERILIZATION USING HIGH-PRESSURE CARBON DIOXIDE” (University of South Carolina, priority 2005, published 2010)
